The source of these data is patent publication US5602153A, “Method of using 1-arylheteroarylalkyl substituted-1H-1,2,4-triazole compounds for treatment of a giaucoma disorder” (G.D. Searle & Co., priority 1993, dated 1997).

The target of test [1] is smooth muscle angiotensin II receptor. Nature of the test: Assay A: Angiotensin II Binding Activity (displacement of 125I-AII, rat uterine membrane preparation). The conditions noted are these: rat uterine membranes, 25 °C, 60 min; read-out: IC50 (50% displacement of total specifically bound 125I-AII). The protocol:
Assay A: Anaiotensin II Binding Activity
Compounds of the invention were tested for ability to bind to the smooth muscle angiotensin II receptor using a rat uterine membrane preparation. Angiotensin II (AII) was purchased from Peninsula Labs. ^125 I-angiotensin II (specific activity of 2200 Ci/mmol) was purchased from Du Pont-New England Nuclear. Other chemicals were obtained from Sigma Chemical Co. This assay was carried out according to the method of Douglas et al [Endocrinology, 106, 120-124 (1980)]. Rat uterine membranes were prepared from fresh tissue. All procedures were carried out at 4° C. Uteri were stripped of fat and homogenized in phosphate-buffered saline at pH 7.4 containing 5 mM EDTA. The homogenate was centrifuged at 1500×g for 20 min., and the supernatant was recentrifuged at 100,000×g for 60 min. The pellet was resuspended in buffer consisting of 2 mM EDTA and 50 mM Tris-HCl (pH 7.5) to a final protein concentration of 4 mg/ml. Assay tubes were charged with 0.25 ml of a solution containing 5 mM MgCl2, 2 mM EDTA, 0.5% bovine serum albumin, 50 mM Tris-HCl, pH 7.5 and ^125 I-AII (approximately 10^5 cpm) in the absence or in the presence of unlabelled ligand. The reaction was initiated by the addition of membrane protein and the mixture was incubated at 25° C. for 60 min. The incubation was terminated with ice-cold 50 mM Tris-HDl (pH 7.5) and the mixture was filtered to separate membrane-bound labelled peptide from the free ligand. The incubation tube and filter were washed with ice-cold buffer. Filters were assayed for radioactivity in a Micromedic gamma counter. Nonspecific binding was defined as binding in the presence of 10 μM of unlabelled AII. Specific binding was calculated as total binding minus nonspecific binding. The receptor binding affinity of an AII antagonist compound was indicated by the concentration (IC50) of the tested AII antagonist which gives 50% displacement of the total specifically bound ^125 I-AII from the high affinity AII receptor. Binding data were analyzed by a nonlinear least-squares curve fitting program.
In general terms: In a radioligand displacement assay an active substance lowers the binding of a labelled ligand.

The next test addresses T1, rabbit aortic rings (Oryctolagus cuniculus, UniProt P34976).
T1 construct: The thoracic aorta was removed, cleaned of adherent fat and connective tissue; from tissue; host or cells: thoracic aorta rings, endothelium removed, male New Zealand white rabbit
T1 sequence (P34976 1-359): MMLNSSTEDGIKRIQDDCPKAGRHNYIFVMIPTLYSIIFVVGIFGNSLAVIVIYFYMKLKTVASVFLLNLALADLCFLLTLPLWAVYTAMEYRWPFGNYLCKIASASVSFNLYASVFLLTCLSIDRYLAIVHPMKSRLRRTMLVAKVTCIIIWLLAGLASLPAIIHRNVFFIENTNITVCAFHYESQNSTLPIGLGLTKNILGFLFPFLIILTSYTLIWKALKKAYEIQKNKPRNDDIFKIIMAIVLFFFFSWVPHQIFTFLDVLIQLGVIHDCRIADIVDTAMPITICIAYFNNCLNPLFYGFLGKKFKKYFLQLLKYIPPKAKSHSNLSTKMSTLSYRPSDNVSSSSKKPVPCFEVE
Put plainly: Assay B: In Vitro Vascular Smooth Muscle-Response for AII (antagonist activity in rabbit aortic rings). The format is cell-based, rabbit (male New Zealand white). The note with it: antagonist 10^-5 M for 5 min, AII challenge. The protocol:
Assay B: In Vitro Vascular Smooth Muscle-Response for AII The compounds of the invention were tested for antagonist activity in rabbit aortic rings. Male New Zealand white rabbits (2-2.5 kg) were sacrificed using an overdose of pentobarbital and exsanguinated via the carotid arteries. The thoracic aorta was removed, cleaned of adherent fat and connective tissue and then cut into 3-mm ring segments. The endothelium was removed from the rings by gently sliding a rolled-up piece of filter paper into the vessel lumen. The rings were then mounted in a water-jacketed tissue bath, maintained at 37° C., between moveable and fixed ends of a stainless steel wire with the moveable end attached to an FT03 Grass transducer coupled to a Model 7D Grass Polygraph for recording isometric force responses. The bath was filled with 20 ml of oxygenated (95% oxygen/5% carbon dioxide) Krebs solution of the following composition (mM): 130 NaCl, 15 NaHCO3, 15 KCl, 1.2 NaH2 PO4, 1.2 MgSO4, 2.5 CaCl2, and 11.4 glucose. The preparations were equilibrated for one hour before approximately one gram of passive tension was placed on the rings. Angiotensin II concentration-response curves were then recorded (3×10^-10 to 1×10^-5 M). Each concentration of AII was allowed to elicit its maximal contraction, and then AII was washed out repeatedly for 30 minutes before rechallenging with a higher concentration of AII. Aorta rings were exposed to the test antagonist at 10^-5 M for 5 minutes before challenging with AII. Adjacent segments of the same aorta ring were used for all concentration-response curves in the presence or absence of the test antagonist. The effectiveness of the test compound was expressed in terms of pA2 values and were calculated according to H.O. Schild [Br. J. Pharmacol. Chemother., 2, 189-206 (1947)]. The pA2 value is the concentration of the antagonist which increases the EC50 value for AII by a factor of two. Each test antagonist was evaluated in aorta rings from two rabbits.

The mark [2] stands for this setting: first of two rabbits, read-out: pA2 (first value) (converted).
[3] abbreviates: second of two rabbits, read-out: pA2 (converted).

Where two headings read alike, the source gives them in different places.

The IC50 is the concentration needed to halve the response being measured. Consider `CCCCc1nc(CCCC)n(Cc2ccc(-c3ccccc3C(=O)O)nc2)n1` [Example 2, 2-[5-[(3,5-dibutyl-1H-1,2,4-triazol-1-yl)methyl]-2-pyridinyl]benzoic acid], for which, in test [1], the IC50 came to 120 nM.
Consider `CCCCc1nc(CCCC)n(Cc2ccc(-c3cccnc3-c3nnn[nH]3)cc2)n1` [Example 4, 5-[3-[4-[(3,5-dibutyl-1H-1,2,4-triazol-1-yl)methyl]phenyl]-2-pyridinyl]-1H-tetrazole], for which the IC50 in test [1] is 110 nM. The Kb at rabbit aortic rings (setting [2]) is 77.6 nM; on rabbit aortic rings (setting [3]) it was 251 nM.
With `CCCCc1nc(CCCC)n(Cc2ccc(-c3ccncc3-c3nnn[nH]3)cc2)n1` [Example 5, 5-[4-[4-[(3,5-dibutyl-1H-1,2,4-triazol-1-yl)methyl]phenyl]-3-pyridinyl]-1H-tetrazole], in test [1], the IC50 came out at 250 nM.
Take `CCCCc1nc(CCCC)n(Cc2ccc(-c3cnccc3-c3nnn[nH]3)cc2)n1` [Example 6, 5-[3-[4-[(3,5-dibutyl-1H-1,2,4-triazol-1-yl)methyl]phenyl]-4-pyridinyl]-1H-tetrazole]: the IC50 in test [1] is 150 nM. Moreover, the Kb on rabbit aortic rings (setting [2]) and at rabbit aortic rings (setting [3]) was 67.6 nM in each case.
As for `CCCCc1nc(CCCC)n(Cc2ccc(-c3ncccc3-c3nnn[nH]3)cc2)n1` [Example 7, 5-[2-[4-[(3,5-dibutyl-1H-1,2,4-triazol-1-yl)methyl]phenyl]-3-pyridinyl]-1H-tetrazole], the IC50 in test [1] was 98 nM. Moreover, the Kb at rabbit aortic rings (setting [2]) was 229 nM; on rabbit aortic rings (setting [3]), 91.2 nM.
Take `CCCc1nc(CCC)n(Cc2ccc(-c3ccccc3-c3nnn[nH]3)nc2)n1` [Example 8, 5-[2-[5-[(3,5-dipropyl-1H-1,2,4triazol-1-yl)methyl]-2-pyridinyl]phenyl]-1H-tetrazole]: the IC50 in test [1] turned out to be 72 nM. The Kb is 34.7 nM on rabbit aortic rings (setting [2]) and 25.7 nM on rabbit aortic rings (setting [3]).
Regarding `CCCCc1nc(CC(CC)CC)nn1Cc1ccc(-c2ccccc2-c2nnn[nH]2)nc1` [Example 13, 5-[2-[5-[[3-(2-ethylbutyl)-5-butyl-1H-1,2,4-triazol-1-yl)methyl]-2-pyridinyl]phenyl]-1H-tetrazole], in test [1], the IC50 was 25 nM.
Still for that read-out and setting: to `CCCCc1nc(CC(CC)CC)n(Cc2ccc(-c3ccccc3-c3nnn[nH]3)nc2)n1` [Example 14, 5-[2-[5-[[3-butyl-5-(2-ethylbutyl)-1H-1,2,4-triazol-1-yl)methyl]-2-pyridinyl]phenyl]-1H-tetrazole] belongs 13 nM.
As to `CCCCc1nc(CCc2ccccc2)nn1Cc1ccc(-c2ccccc2-c2nnn[nH]2)nc1` [Example 15, 5-[2-[5-[[3-(2-phenylethyl)-5-butyl-1H-1,2,4-triazol-1-yl)methyl]-2-pyridinyl]phenyl]-1H-tetrazole], in test [1], the IC50 worked out at 2.6 nM.
As for `CCCCc1nc(CCc2ccccc2)n(Cc2ccc(-c3ccccc3-c3nnn[nH]3)nc2)n1` [Example 16, 5-[2-[5-[[3-butyl-5-(2-phenylethyl)-1H-1,2,4-triazol-1-yl)methyl]-2-pyridinyl]phenyl]-1H-tetrazole], the IC50 in test [1] worked out at 72 nM.
Take `CCCCc1nc(C(=O)NC)nn1Cc1ccc(-c2ccccc2-c2nnn[nH]2)nc1` [Example 19, 5-[2-[5-[[3-(N-methylamido)-5-butyl-1H-1,2,4-triazol-1-yl)methyl]-2-pyridinyl]phenyl]-1H-tetrazole]: in test [1], the IC50 came out at 160 nM. Besides, the Kb on rabbit aortic rings (setting [2]) was 234 nM; on rabbit aortic rings (setting [3]) it was 209 nM.
The matching figures for `CCCCc1nc(C(=O)NC)n(Cc2ccc(-c3ccccc3-c3nnn[nH]3)nc2)n1` [Example 20, 5-[2-[5-[[3-butyl-5-(N-methylamido)-1H-1,2,4-triazol-1-yl)methyl]-2-pyridinyl]phenyl]-1H-tetrazole]: 350 nM, 145 nM and 145 nM.
On to `CCCCc1nc(-c2ccccc2)nn1Cc1ccc(-c2ccccc2-c2nnn[nH]2)nc1` [Example 21, 5-[2-[5-[(3-phenyl-5-butyl-1H-1,2,4-triazol-1-yl)methyl]-2-pyridinyl]phenyl]-1H-tetrazole], for which the IC50 in test [1] turned out to be 54 nM.
Take `CCCCc1nc(-c2ccccc2)n(Cc2ccc(-c3ccccc3-c3nnn[nH]3)nc2)n1` [Example 22, 5-[2-[5-[(3-butyl-5-phenyl-1H-1,2,4-triazol-1-yl)methyl]-2-pyridinyl]phenyl]-1H-tetrazole]: the IC50 in test [1] is 220 nM.
Turning to `CCCCc1nc(-c2ccccc2C)nn1Cc1ccc(-c2ccccc2-c2nnn[nH]2)nc1` [Example 23, 5-[2-[5-[[3-(2-methylphenyl)-5-butyl-1H-1,2,4-triazol-1-yl)methyl]-2-pyridinyl]phenyl]-1H-tetrazole], the IC50 in test [1] is 18 nM.
As to `CCCCc1nc(-c2ccccc2C)n(Cc2ccc(-c3ccccc3-c3nnn[nH]3)nc2)n1` [Example 24, 5-[2-[5-[[3-butyl-5-(2-methylphenyl)-1H-1,2,4-triazol-1-yl)methyl]-2-pyridinyl]phenyl]-1H-tetrazole], the IC50 in test [1] came out at 530 nM. Also, the Kb on rabbit aortic rings (setting [3]) was 603 nM.
For the molecule `CCCCc1nc(-c2ccccc2C(C)C)nn1Cc1ccc(-c2ccccc2-c2nnn[nH]2)nc1` [Example 25, 5-[2-[5-[[3-(2-isopropylphenyl)-5-butyl-1H-1,2,4-triazol-1-yl)methyl]-2-pyridinyl]phenyl]-1H-tetrazole], the IC50 in test [1] is 57 nM.
Still for that read-out and setting: to `CCCCc1nc(-c2ccccc2C(C)C)n(Cc2ccc(-c3ccccc3-c3nnn[nH]3)nc2)n1` [Example 26, 5-[2-[5-[[3-butyl-5-(2-isopropylphenyl)-1H-1,2,4-triazol-1-yl)methyl]-2-pyridinyl]phenyl]-1H-tetrazole] belongs 11 nM.
The same measure, in the same setting: to `CCCCc1nc(-c2ccccc2OC)nn1Cc1ccc(-c2ccccc2-c2nnn[nH]2)nc1` [Example 27, 5-[2-[5-[[3-(2-methoxyphenyl)-5-butyl-1H-1,2,4-triazol-1-yl)methyl]-2-pyridinyl]phenyl]-1H-tetrazole] belongs 110 nM.
In the case of `CCCCc1nc(-c2ccccc2OC)n(Cc2ccc(-c3ccccc3-c3nnn[nH]3)nc2)n1` [Example 28, 5-[2-[5-[[3-butyl-5-(2-methoxyphenyl)-1H-1,2,4-triazol-1-yl)methyl]-2-pyridinyl]phenyl]-1H-tetrazole], the IC50 in test [1] is 290 nM.
As to `CCCCc1nc(-c2c(F)cccc2F)nn1Cc1ccc(-c2ccccc2-c2nnn[nH]2)nc1` [Example 31, 5-[2-[5-[[3-(2,6-difluorophenyl)-5-butyl-1H-1,2,4-triazol-1-yl)methyl]-2-pyridinyl]phenyl]-1H-tetrazole], in test [1], the IC50 amounted to 9.7 nM.
The same measure, in the same setting: to `CCCCc1nc(-c2c(F)cccc2F)n(Cc2ccc(-c3ccccc3-c3nnn[nH]3)nc2)n1` [Example 32, 5-[2-[5-[[3-butyl-5-(2,6-difluorophenyl)-1H-1,2,4-triazol-1-yl)methyl]-2-pyridinyl]phenyl]-1H-tetrazole] belongs 21 nM.
